The text below walks through data of article PMC9358669, “Native metabolomics identifies the rivulariapeptolide family of protease inhibitors” (Nature Communications, 2022).

Entries after “also recorded” stand apart in the source; their conditions may differ. Starred links: 1 amine or outer side, 2 acyl side, 3 side chain; linkers in the order of their positions; H or OH if unused. Positions of bridges follow the written chain, without caps; N, C: chain ends. Non-standard residues stand in square brackets, D forms with d. Residues, ends and D or L forms follow the SMILES beside them. *: point of attachment. Leu(3R-OH,Nα-propionyl) = CCC(=O)N[C@H](C(=O)*)[C@H](O)C(C)C; X1 = CC(C)[C@@H](O[*:3])[C@H](N[*:1])C(=O)[*:2]; NMeT = CN[C@H](C(=O)O)[C@@H](C)O; dPhLac = O=C(O)[C@H](O)Cc1ccccc1; NMeA = CN[C@@H](C)C(=O)O; NMeDha = C=C(NC)C(=O)O

The first assay addresses T1, Chymotrypsin (Bos taurus, UniProt P00766).
T1 construct: purchased Sigma-Aldrich
Put plainly: Native metabolomics / native MS detection of chymotrypsin-ligand complexes. In kind it is binding. The following applies: control compounds pooled at 10 µg/mL. Here is the method: For native metabolomics experiments, the same chromatographic parameters were used and in addition, 220 µL/min (setup A) or 150 µL/min (setup B) ammonium acetate buffer was infused post-column through a make-up pump and a PEEKT-splitter and enzyme solution was infused with 2 µL/min flow rate via the integrated syringe pump. ESI settings were set to 40 arb. units sheath gas flow, the auxiliary gas flow was set to 10 arb. units and sweep gas flow was set to 0 arb. units. The auxiliary gas temperature was set to 150 °C. The spray voltage was set to 3 kV and the inlet capillary was heated to 253 °C. S-lens level was set to 30 V applied. MS scan range was set to 2000-4000 m/z (setup A) and 2500–4000 m/z (setup B) with a resolution Rm/z 200 140,000 (setup A) and 120,000 (setup B) with 2 microscans. MS acquisition was performed in all-ion fragmentation (AIF) mode with Rm/z 200 with 20% HCD collision energy and an isolation window of 2000 –4000 m/z (setup A) or 2500–4000 m/z (setup B).
For native LC-MS data, multiple charged spectra were deconvoluted using the Xtract algorithm in Qualbrowser, part of the Xcalibur software (Thermo Scientific) and also using FLASHDeconv (version 2.0Beta) {Jeong, K. et al. FLASHDeconv: Ultrafast, High-Quality Feature Deconvolution for Top- Down Proteomics. Cell Syst 10, 213-218 e216 (2020).}. For Xtract algorithm, both deconvoluted native LC-MS and metabolomics LC-MS/MS.raw files were converted to the centroid.mzML file format using MSconvert of the proteowizard software package. For FLASHDeconv, the raw files were converted into centroid m/zML again using MSconvert software first. Then the converted mzML files were deconvolved to generate deconvolved.mzML format files. Feature finding of both file types was performed using a modified version of MZmine2.37 (corr.17.7). Feature tables from both intact protein mass and metabolomics data were matched by their retention time (RT) and an m/z offset corresponding to the mass of chymotrypsin (25234 Da) with an RT tolerance of 0.2 min and a mass tolerance of 4 Da.
To optimize ESI setting as well as the influence of NH4Acetate concentration and pH, we used molassamide as a test compound. For optimization of ESI settings, we performed flow injections without a column and ramped ESI aux gas temperature, in-source CID energy, S-lense RF voltage. Optimization of pH values over the entire LC gradient and peak intensities were both assessed using three different make-up buffers. Make-up buffer 1 was water, make-up buffer 2 was 10 mM NH4Acetate buffer, and make-up buffer 3 was 10 mM NH4Acetate buffer + 0.2% ammonium hydroxide, v/v. Effects of NH4Acetate concentration was assessed with an online mixed make-up flow (using Experimental Setup B) with the low-pressure gradient pump. As solvent A we used LC-MS grade water and 100 mM NH4Acetate as solvent B. Molassamide was prepared as 100 µM solutions from a 10 mM stock solution in DMSO by preparing a 1:100 dilution into solvent mixture 1 (water + 10% acetonitrile + 0.1% formic acid). Samples were analyzed as described in micro-flow LC-MS/MS data acquisition (setup A); 2 µL of each solution were injected into the mass spectrometer, while chymotrypsin (Sigma), dissolved in water to a final concentration of 2 mg/mL, was injected through the syringe pump at a flow rate of 2 µL/min. pH values were assessed by disconnecting the flow to the source and collecting ~30 µL of solvent every minute, then testing this value on pH paper.
Molassamide was prepared as 100 µM solutions from a 10 mM stock solution in DMSO by preparing a 1:100 dilution into solvent mixture 1 (water + 10% acetonitrile + 0.1% formic acid). From this 100 µM solution, dilutions were prepared at 10, 1, and 0.1 µM into solvent mixture 1. 2 µL of each solution were injected into the mass spectrometer. […]
Consider `C=C1C(=O)N[C@@H](C)C(=O)N(C)[C@@H](C)C(=O)N[C@@H]([C@H](OC(=O)[C@@H](NC(=O)CC)[C@H](O)C(C)C)C(C)C)C(=O)N(C)[C@@H]([C@@H](C)OC)C(=O)O[C@H](C(C)C)[C@H](NC(C)=O)C(=O)O[C@H](Cc2ccccc2)C(=O)N1C` [FR900359] (Ac-[X1][dPhLac][NMeDha]A[NMeA][X1](Leu(3R-OH,Nα-propionyl))[NMeT](Me); ester 1-C), for which the “binding to chymotrypsin under native MS conditions” value (“binding to chymotrypsin” for short) is “did not observe the binding; also recorded: no binding”.

On to `CC[C@H](C)[C@@H](C(=O)O[C@@H](CC(C)C)C(=O)N[C@@H](CC(C)C)C(=O)N[C@@H](C)/C=C/C(=O)N1C(=O)C=C(OC)[C@@H]1C)N(C)C` [gallinamide A], for which the “binding to chymotrypsin” value is “did not observe the binding; also recorded: no binding”.

For `O=c1c(-c2ccc(O)cc2)coc2cc(O)cc(O)c12` [genistein], the “binding to chymotrypsin” value is “did not observe the binding; also recorded: no binding”.

With `Oc1cc(O)cc(O)c1` [phloroglucinol], the “binding to chymotrypsin” value is recorded as “did not observe the binding; also recorded: no binding”.

For `O=C1c2ccc(O)c(O)c2C(=O)c2c(O)ccc(O)c21` [quinalizarin], the “binding to chymotrypsin” value is recorded as “did not observe the binding; also recorded: no binding”.

The subject of the next assay is Chymotrypsin.
Assay: not given
Also noted: method as in earlier work. The following applies: Supplementary Table 5, Top 50 chymotrypsin inhibitors among Ahp-cyclodepsipeptides; cited from earlier work.
Take Cyanopeptolin CP978: the IC50 is 260 nM.

Regarding Cyanopeptolin CP992, the IC50 was 240 nM.

On to Cyanopeptolin CP1018, for which the IC50 is 240 nM.

As to Dinghupepeptin B, the IC50 was 1100 nM.

Consider Loggerpeptin A, for which the IC50 was 240 nM.

For the molecule Micropeptin 88-A, the IC50 is 400 nM.

As to Micropeptin 88-Y, the IC50 is 1300 nM.

In the case of Micropeptin KB991, the IC50 is 870 nM.

Micropeptin KB1048: the IC50 is 630 nM.

For Micropeptin MM850, the IC50 is 1700 nM.

As for Micropeptin T-20, the IC50 is 2.5 nM.

Turning to Tutuilamide C, the IC50 was 542 nM.

The same assay, now with this note: cited from earlier work.
For the molecule Microcystin 996, the IC50 was 640 nM.
